This note sets out measurements from patent publication US20090188860A1, “Use of antimicrobials in water technology” (priority 2006, published 2009).

This experiment relates to bacteria. The experiment is described as follows: bacterial presence in permeate and on membrane of a reverse osmosis module in a desalination process. The following applies: cellulose acetate membranes cast with 0.5% and 2.0% by weight of the antimicrobial agent, after a one month period of operation. On the procedure:
Cellulose acetate membranes were cast from a dope solution containing about 20% of a cellulose di- and -tri-acetate mixture and 0.5% and 2.0% by weight, respectively, of the antimicrobial agent of formula (3). The solvent is a mixture of dioxane and acetone (2:1; w/w).
Further, the cellulose acetate membranes were used in a reverse osmosis module in a desalination process.
The reverse osmosis module was tested to determine any bacterial presence in the permeate.

Turning to `Oc1cc(Cl)ccc1Oc1ccc(Cl)cc1` [formula (3), 4,4′-dichloro-2-hydroxydiphenylether], the “bacterial presence in the permeate and on the membrane” value was “no bacteria could be found”.
